Assay results from the NIST ThermoML archive (doi:10.1021/acs.jced.8b00554).

Conditions: Liquid, Vibrating tube method

CCCCCCCC [octane]
Conditions	mass density [kg/m3]
313.15 K, 100 kPa	686.05
313.15 K, 1030 kPa	687.19
313.15 K, 1950 kPa	688.13
313.15 K, 2950 kPa	689.08
313.15 K, 3960 kPa	690
313.15 K, 4960 kPa	690.87
313.15 K, 5970 kPa	691.78
313.15 K, 6970 kPa	692.65
313.15 K, 7980 kPa	693.54
313.15 K, 8980 kPa	694.38
313.15 K, 9990 kPa	695.26
313.15 K, 11030 kPa	696.11
313.15 K, 11950 kPa	696.94
313.15 K, 12950 kPa	697.75
313.15 K, 13960 kPa	698.56
313.15 K, 14960 kPa	699.37
313.15 K, 15970 kPa	700.18
313.15 K, 16970 kPa	700.99
313.15 K, 17980 kPa	701.77
313.15 K, 18980 kPa	702.53
313.15 K, 19990 kPa	703.31
323.15 K, 100 kPa	677.56
323.15 K, 950 kPa	678.99
323.15 K, 1960 kPa	680.02
323.15 K, 2970 kPa	681.01
323.15 K, 3980 kPa	681.99
323.15 K, 4980 kPa	682.97
323.15 K, 5980 kPa	683.91
323.15 K, 6990 kPa	684.86
323.15 K, 7990 kPa	685.78
323.15 K, 9000 kPa	686.69
323.15 K, 10090 kPa	687.59
323.15 K, 10950 kPa	688.51
323.15 K, 11960 kPa	689.4
323.15 K, 12970 kPa	690.29
323.15 K, 13980 kPa	691.16
323.15 K, 14980 kPa	691.98
323.15 K, 15980 kPa	692.86
323.15 K, 16990 kPa	693.68
323.15 K, 17990 kPa	694.53
323.15 K, 19000 kPa	695.33
323.15 K, 20090 kPa	696.18
333.15 K, 100 kPa	669.13
333.15 K, 1050 kPa	670.67
333.15 K, 1940 kPa	671.75
333.15 K, 2950 kPa	672.81
333.15 K, 3950 kPa	673.87
333.15 K, 4960 kPa	674.91
333.15 K, 5960 kPa	675.95
333.15 K, 6960 kPa	676.93
333.15 K, 7990 kPa	677.93
333.15 K, 8990 kPa	678.93
333.15 K, 10000 kPa	679.89
333.15 K, 11050 kPa	680.86
333.15 K, 11940 kPa	681.81
333.15 K, 12950 kPa	682.71
333.15 K, 13950 kPa	683.67
333.15 K, 14960 kPa	684.58
333.15 K, 15960 kPa	685.48
333.15 K, 16960 kPa	686.34
333.15 K, 17990 kPa	687.26
333.15 K, 18990 kPa	688.1
333.15 K, 20000 kPa	688.97
343.15 K, 100 kPa	661.02
343.15 K, 960 kPa	662.23
343.15 K, 1970 kPa	663.39
343.15 K, 2980 kPa	664.55
343.15 K, 3980 kPa	665.65
343.15 K, 4990 kPa	666.79
343.15 K, 5990 kPa	667.86
343.15 K, 7000 kPa	668.94
343.15 K, 8010 kPa	670.02
343.15 K, 9010 kPa	671.05
343.15 K, 10100 kPa	672.12
343.15 K, 10960 kPa	673.13
343.15 K, 11970 kPa	674.15
343.15 K, 12980 kPa	675.12
343.15 K, 13980 kPa	676.13
343.15 K, 14990 kPa	677.1
343.15 K, 15990 kPa	678.03
343.15 K, 17000 kPa	678.97
343.15 K, 18010 kPa	679.93
343.15 K, 19010 kPa	680.86
343.15 K, 20100 kPa	681.78
353.15 K, 100 kPa	652.22
353.15 K, 1060 kPa	653.65
353.15 K, 1940 kPa	654.91
353.15 K, 2950 kPa	656.12
353.15 K, 3960 kPa	657.35
353.15 K, 4960 kPa	658.54
353.15 K, 5960 kPa	659.71
353.15 K, 6970 kPa	660.9
353.15 K, 7980 kPa	662.03
353.15 K, 8980 kPa	663.17
353.15 K, 9980 kPa	664.24
353.15 K, 11060 kPa	665.33
353.15 K, 11940 kPa	666.44
353.15 K, 12950 kPa	667.49
353.15 K, 13960 kPa	668.52
353.15 K, 14960 kPa	669.56
353.15 K, 15960 kPa	670.6
353.15 K, 16970 kPa	671.6
353.15 K, 17980 kPa	672.57
353.15 K, 18980 kPa	673.56
353.15 K, 19980 kPa	674.52
363.15 K, 100 kPa	643.71
363.15 K, 950 kPa	644.91
363.15 K, 1960 kPa	646.3
363.15 K, 2970 kPa	647.63
363.15 K, 3970 kPa	648.92
363.15 K, 4980 kPa	650.23
363.15 K, 5980 kPa	651.49
363.15 K, 6990 kPa	652.73
363.15 K, 7990 kPa	653.97
363.15 K, 8990 kPa	655.15
363.15 K, 10090 kPa	656.34
363.15 K, 10950 kPa	657.54
363.15 K, 11960 kPa	658.66
363.15 K, 12970 kPa	659.79
363.15 K, 13970 kPa	660.94
363.15 K, 14980 kPa	662.01
363.15 K, 15980 kPa	663.09
363.15 K, 16990 kPa	664.19
363.15 K, 17990 kPa	665.21
363.15 K, 18990 kPa	666.28
363.15 K, 20090 kPa	667.28

CCCCCCCCC [nonane]
Conditions	mass density [kg/m3]
313.15 K, 100 kPa	701.49
313.15 K, 1050 kPa	702.34
313.15 K, 2030 kPa	703.25
313.15 K, 3030 kPa	704.17
313.15 K, 4040 kPa	705.07
313.15 K, 5050 kPa	705.96
313.15 K, 5980 kPa	706.78
313.15 K, 7050 kPa	707.7
313.15 K, 8060 kPa	708.56
313.15 K, 9060 kPa	709.4
313.15 K, 10070 kPa	710.23
313.15 K, 11050 kPa	710.92
313.15 K, 12030 kPa	711.71
313.15 K, 13030 kPa	712.51
313.15 K, 14040 kPa	713.3
313.15 K, 15050 kPa	714.09
313.15 K, 15980 kPa	714.8
313.15 K, 17050 kPa	715.61
313.15 K, 18060 kPa	716.36
313.15 K, 19060 kPa	717.1
313.15 K, 20070 kPa	717.83
323.15 K, 100 kPa	693.34
323.15 K, 1030 kPa	694.03
323.15 K, 2040 kPa	695.02
323.15 K, 3030 kPa	695.98
323.15 K, 4040 kPa	696.94
323.15 K, 5040 kPa	697.88
323.15 K, 6040 kPa	698.81
323.15 K, 7050 kPa	699.74
323.15 K, 8060 kPa	700.65
323.15 K, 9060 kPa	701.55
323.15 K, 10060 kPa	702.43
323.15 K, 11030 kPa	703.16
323.15 K, 12040 kPa	704.02
323.15 K, 13030 kPa	704.87
323.15 K, 14040 kPa	705.71
323.15 K, 15040 kPa	706.54
323.15 K, 16040 kPa	707.35
323.15 K, 17050 kPa	708.16
323.15 K, 18060 kPa	708.96
323.15 K, 19060 kPa	709.74
323.15 K, 20060 kPa	710.52
333.15 K, 100 kPa	685.03
333.15 K, 1030 kPa	685.98
333.15 K, 2020 kPa	687
333.15 K, 3020 kPa	688.03
333.15 K, 4020 kPa	689.05
333.15 K, 5030 kPa	690.05
333.15 K, 6030 kPa	691.03
333.15 K, 7030 kPa	692
333.15 K, 8040 kPa	692.97
333.15 K, 9040 kPa	693.91
333.15 K, 10050 kPa	694.85
333.15 K, 11030 kPa	695.64
333.15 K, 12020 kPa	696.54
333.15 K, 13020 kPa	697.44
333.15 K, 14020 kPa	698.32
333.15 K, 15030 kPa	699.2
333.15 K, 16030 kPa	700.06
333.15 K, 17030 kPa	700.91
333.15 K, 18040 kPa	701.76
333.15 K, 19040 kPa	702.59
333.15 K, 20050 kPa	703.42
343.15 K, 100 kPa	677.18
343.15 K, 1000 kPa	678.15
343.15 K, 2010 kPa	679.25
343.15 K, 3010 kPa	680.33
343.15 K, 4020 kPa	681.41
343.15 K, 5030 kPa	682.46
343.15 K, 6030 kPa	683.5
343.15 K, 7040 kPa	684.52
343.15 K, 8040 kPa	685.53
343.15 K, 9050 kPa	686.53
343.15 K, 10050 kPa	687.51
343.15 K, 11000 kPa	688.33
343.15 K, 12010 kPa	689.29
343.15 K, 13010 kPa	690.24
343.15 K, 14020 kPa	691.18
343.15 K, 15030 kPa	692.1
343.15 K, 16030 kPa	693.01
343.15 K, 17040 kPa	693.91
343.15 K, 18040 kPa	694.8
343.15 K, 19050 kPa	695.68
343.15 K, 20050 kPa	696.54
353.15 K, 100 kPa	669.55
353.15 K, 1000 kPa	670.57
353.15 K, 2000 kPa	671.72
353.15 K, 3010 kPa	672.85
353.15 K, 4010 kPa	673.98
353.15 K, 5020 kPa	675.08
353.15 K, 6020 kPa	676.17
353.15 K, 7020 kPa	677.25
353.15 K, 8030 kPa	678.31
353.15 K, 9030 kPa	679.35
353.15 K, 10040 kPa	680.39
353.15 K, 11000 kPa	681.26
353.15 K, 12000 kPa	682.26
353.15 K, 13010 kPa	683.26
353.15 K, 14010 kPa	684.23
353.15 K, 15020 kPa	685.21
353.15 K, 16020 kPa	686.16
353.15 K, 17020 kPa	687.1
353.15 K, 18030 kPa	688.03
353.15 K, 19030 kPa	688.95
353.15 K, 20040 kPa	689.86
363.15 K, 100 kPa	662.05
363.15 K, 990 kPa	663.2
363.15 K, 2000 kPa	664.41
363.15 K, 3010 kPa	665.6
363.15 K, 4010 kPa	666.77
363.15 K, 5020 kPa	667.93
363.15 K, 6020 kPa	669.07
363.15 K, 7030 kPa	670.19
363.15 K, 8030 kPa	671.3
363.15 K, 9040 kPa	672.4
363.15 K, 10040 kPa	673.47
363.15 K, 10990 kPa	674.38
363.15 K, 12000 kPa	675.44
363.15 K, 13010 kPa	676.48
363.15 K, 14010 kPa	677.5
363.15 K, 15020 kPa	678.52
363.15 K, 16020 kPa	679.51
363.15 K, 17030 kPa	680.5
363.15 K, 18030 kPa	681.47
363.15 K, 19040 kPa	682.43
363.15 K, 20040 kPa	683.38
